The values that follow are results of earlier work, collected in patent publication US20250288673A1, “GENE THERAPY FOR THE TREATMENT OF ACTIVATED PI3KINASE DELTA SYNDROME TYPE 1 (APDS1)” (Cellectis SA, priority 2022, published 2025).

For data set [1] the following is noted: after administration; cited from earlier work.
In the next data set the test system is PI3Kδ. To be noted: APDS1 treatment; cited from earlier work.

As for `[O-][n+]1cccc(-c2nc3c(Cl)cccc3cc2[C@@H](Nc2ncnc3cccnc23)C(F)(F)F)c1` [Seletalisib], the “side effects outside of the immune system” value in data set [1] is “liver toxicity”. For the same molecule, the “effect on lymphadenopathy and immune B cell subpopulations” value in the data set on PI3Kδ was “reduction in lymphadenopathy and normalization of immune B cell subpopulations”.
As for `CO[C@H]1C[C@@H]2CC[C@@H](C)[C@@](O)(O2)C(=O)C(=O)N2CCCC[C@H]2C(=O)O[C@H]([C@H](C)C[C@@H]2CC[C@@H](O)[C@H](OC)C2)CC(=O)[C@H](C)/C=C(\C)[C@@H](O)[C@@H](OC)C(=O)[C@H](C)C[C@H](C)/C=C/C=C/C=C/1C` [Rapamycin], in data set [1], the “side effects outside of the immune system” value is “proteinuria was observed”.
